From patent US6521605B1, “Amidophosphate derivatives” (Eli Lilly and Company, priority 1998, dated 2003)

Molecular target: T1, human GluR4B receptor (Homo sapiens, UniProt P48058)
T1 construct: expressed in transfected cells
Assay: potentiation of agonist-induced excitability of human GluR4B receptor expressed in HEK 293 cells
Assay type: cell-based
Conditions: human GluR4B expressed in HEK 293 cells
Excerpt: The ability of compounds of formula I to potentiate glutamate receptor-mediated response may be determined using fluorescent calcium indicator dyes (Molecular Probes, Eugene, Oreg., Fluo-3) and by measuring glutamate-evoked efflux of calcium into GluR4 transfected HEK293 cells, as described in more detail below.
In one test, 96 well plates containing confluent monolayers of HEK cells stably expressing human GluR4B (obtained as described in European Patent Application Publication Number EP-A1-583917) are prepared. The tissue culture medium in the wells is then discarded, and the wells are each washed once with 200 μl of buffer (glucose, 10 mM, sodium chloride, 138 mM, magnesium chloride, 1 mM, potassium chloride, 5 mM, calcium chloride, 5 mM, N-[2-hydroxyethyl]-piperazine-N-[2-ethanesulfonic acid], 10 mM, to pH 7.1 to 7.3). […]
Each test is then performed as follows. […] A second fluorescent reading is taken after 5 minutes incubation. 15 μl of 400 μM glutamate solution is then added to each well (final glutamate concentration 100 μM), and a third reading is taken. The activities of test compounds and cyclothiazide solutions are determined by subtracting the second from the third reading (fluorescence due to addition of glutamate in the presence or absence of test compound or cyclothiazide) and are expressed relative to enhance fluorescence produced by 100 μM, cyclothiazide.

T1 sequence (P48058 21-902): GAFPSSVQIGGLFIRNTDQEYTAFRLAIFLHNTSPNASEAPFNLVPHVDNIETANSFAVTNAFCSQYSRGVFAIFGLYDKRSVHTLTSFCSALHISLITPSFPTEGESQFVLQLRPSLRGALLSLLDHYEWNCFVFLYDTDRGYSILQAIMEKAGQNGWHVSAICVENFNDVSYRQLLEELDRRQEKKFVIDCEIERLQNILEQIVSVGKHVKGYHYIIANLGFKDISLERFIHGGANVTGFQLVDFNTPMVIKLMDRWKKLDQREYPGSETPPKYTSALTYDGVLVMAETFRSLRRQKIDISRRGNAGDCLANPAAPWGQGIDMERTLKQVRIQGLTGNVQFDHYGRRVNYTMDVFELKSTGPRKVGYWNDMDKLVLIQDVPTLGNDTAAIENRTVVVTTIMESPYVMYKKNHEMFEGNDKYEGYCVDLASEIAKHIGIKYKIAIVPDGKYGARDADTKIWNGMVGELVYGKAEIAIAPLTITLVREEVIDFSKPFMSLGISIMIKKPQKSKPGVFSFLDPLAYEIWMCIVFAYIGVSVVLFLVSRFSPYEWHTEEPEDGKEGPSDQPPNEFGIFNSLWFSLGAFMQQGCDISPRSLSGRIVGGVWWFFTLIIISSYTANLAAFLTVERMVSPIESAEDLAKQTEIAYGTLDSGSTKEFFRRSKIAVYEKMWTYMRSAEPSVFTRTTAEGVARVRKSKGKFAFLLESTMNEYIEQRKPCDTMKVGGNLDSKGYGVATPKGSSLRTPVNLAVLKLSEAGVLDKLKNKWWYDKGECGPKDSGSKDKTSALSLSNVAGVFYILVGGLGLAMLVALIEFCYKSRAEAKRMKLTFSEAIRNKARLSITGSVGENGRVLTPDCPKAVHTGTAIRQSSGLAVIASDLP

NS(=O)(=O)c1cc2c(cc1Cl)NC(C1CC3C=CC1C3)NS2(=O)=O (stereo not shown) [cyclothiazide]
potentiation of agonist-induced excitability of human GluR4B receptor: potentiate agonist-induced excitability
